Results on 22 compounds are retold here after US7045515B2, “β-lactam compounds process for reproducing the same and serum cholesterol-lowering agents containing the same” (Kotobuki Pharmaceutical Co., Ltd., priority 2001, dated 2006).

Each structure is given as a SMILES string.

As a reminder, the melting point is the temperature, or range, at which the solid turns liquid. With `CC(=O)OC[C@H]1O[C@@H](Cc2ccc([C@@H]3[C@@H](CCCc4ccc(F)cc4)C(=O)N3c3ccccc3)cc2)[C@H](OC(C)=O)[C@@H](OC(C)=O)[C@@H]1OC(C)=O` (relative stereo) [Compound 10, (3S,2R,4R,5R,6R)-2-[(4-{(4S*,3R*)-1-phenyl-3-[3-(4-fluorophenyl)propyl]-2-oxoazetidine-4-yl}phenyl)methyl]4,5-diacetyloxy-6-(acetoxymethyl)perhydro-2H-pyran-3-ylacetate], the melting point lay within 60 to 61 °C. Regarding `O=C1[C@H](CCCc2ccccc2)[C@@H](c2ccc(CC3O[C@H](CO)[C@@H](O)[C@H](O)[C@H]3O)cc2)N1c1ccc(F)cc1` (relative stereo) [Compound 11, (4S*,3R*)-4-(4-{[(5S,2R,3R,4R,6R)-3,4,5-Trihydroxy-6-(hydroxymethyl)perhydro-2H-pyran-2-yl]methyl}phenyl)-1-(4-fluorophenyl)-3-[3-(phenyl)propyl]azetidine-2-one], the melting point lay in the range of 74 to 75 °C. In turn, `O=C1[C@H](CCOc2ccc(F)cc2)[C@@H](c2ccc(CC3O[C@H](CO)[C@@H](O)[C@H](O)[C@H]3O)cc2)N1c1ccc(F)cc1` (relative stereo) [Compound 12, (4S*,3R*)-4-(4-{[(5S,2R,3R,4R,6R)-3,4,5-Trihydroxy-6-(hydroxymethyl)perhydro-2H-pyran-2-yl]methyl}phenyl)-1-(4-fluorophenyl)-3-[2-(4-fluorophenoxy)ethyl]azetidine-2-one] had a melting point of 65 to 67 °C. On to `O=C1[C@H](CCCc2ccc(F)cc2)[C@@H](c2ccc(OCC3O[C@H](CO)[C@@H](O)[C@H](O)[C@H]3O)cc2)N1c1ccc(F)cc1` (relative stereo) [Compound 14, (4S*,3R*)-4-(4-{[(4S,5S,2R,3R,6R)-3,4,5-Trihydroxy-6-(hydroxymethyl)perhydro-2H-pyran-2-yl]methoxy}phenyl)-1-(4-fluorophenyl)-3-[3-(4-fluorophenyl)propyl]azetidine-2-one], for which the melting point was in the range of 61 to 62 °C.

For the compound `O=C1[C@H](CCCc2ccc(F)cc2)[C@@H](c2ccc(OCC3O[C@H](CO)[C@@H](O)[C@H](O)[C@H]3O)cc2)N1Cc1ccccc1` (relative stereo) [Compound 16, (4S*,3R*)-4-(4-{[(4S,5S,2R,3R,6R)-3,4,5-Trihydroxy-6-(hydroxymethyl)perhydro-2H-pyran-2-yl]methoxy}phenyl)-1-phenylmethyl-3-[3-(4-fluorophenyl)propyl]azetidine-2-one], the melting point was 73 to 75 °C. The value for `CCOC(=O)C(C)(C)Oc1ccc(N2C(=O)[C@H](CCCc3ccc(F)cc3)[C@H]2c2ccc(C[C@@H]3O[C@H](CO)[C@@H](O)[C@H](O)[C@H]3O)cc2)cc1` (relative stereo) [Compound 18, 2-{4-[(4S*,3R*)-4-{[(5S,2R,3R,4R,6R)-3,4,5-Trihydroxy-6-(hydroxymethyl)perhydro-2H-pyran-2-yl]methyl}phenyl-3-[3-(4-fluorophenyl)propyl]-2-oxoazetidinyl]phenoxy}-2-methylpropionic acid ethyl ester] was 73 to 74 °C; that for `CC(C)(Oc1ccc(N2C(=O)[C@H](CCCc3ccc(F)cc3)[C@H]2c2ccc(C[C@@H]3O[C@H](CO)[C@@H](O)[C@H](O)[C@H]3O)cc2)cc1)C(=O)O` (relative stereo) [Compound 19, 2-{4-[(4S*,3R*)-4-{[(5S,2R,3R,4R,6R)-3,4,5-Trihydroxy-6-(hydroxymethyl)perhydro-2H-pyran-2-yl]methyl}phenyl-3-[3-(4-fluorophenyl)propyl]-2-oxoazetidinyl]phenoxy}-2-methylpropionic acid] was 170 to 172 °C.

`CCOC(=O)C(C)(C)Oc1ccc(N2C(=O)[C@H](CCCc3ccc(C)cc3)[C@H]2c2ccc(C[C@@H]3O[C@H](CO)[C@@H](O)[C@H](O)[C@H]3O)cc2)cc1` (relative stereo) [Compound 20, 2-{4-[(4S*,3R*)-4-{[(5S,2R,3R,4R,6R)-3,4,5-Trihydroxy-6-(hydroxymethyl)perhydro-2H-pyran-2-yl]methyl}phenyl-3-[3-(4-methylphenyl)propyl]-2-oxoazetidinyl]phenoxy}-2-methylpropionic acid ethyl ester] displayed a melting point of 76 to 78 °C. The value for `Cc1ccc(CCC[C@H]2C(=O)N(c3ccc(OC(C)(C)C(=O)O)cc3)[C@@H]2c2ccc(C[C@@H]3O[C@H](CO)[C@@H](O)[C@H](O)[C@H]3O)cc2)cc1` (relative stereo) [Compound 21, 2-{4-[(4S*,3R*)-4-{[(5S,2R,3R,4R,6R)-3,4,5-Trihydroxy-6-(hydroxymethyl)perhydro-2H-pyran-2-yl]methyl}phenyl-3-[3-(4-methylphenyl)propyl]-2-oxoazetidinyl]phenoxy}-2-methylpropionic acid] was 161 to 162 °C; that for `O=C1[C@H](CCCc2ccc(F)cc2)[C@H](c2ccc(CC3O[C@H](CO)[C@@H](O)[C@H](O)[C@H]3O)cc2)N1c1ccc(F)cc1` (relative stereo) [Compound 40, (4R*,3R*)-4-(4-{[(5S,2R,3R,4R,6R)-3,4,5-Trihydroxy-6-(hydroxymethyl)perhydro-2H-pyran-2-yl]methyl}phenyl)-3-[3-(4-fluorophenyl)propyl]-1-(4-fluorophenyl)azetidine-2-one] was 78 to 80 °C. As to `O=C1[C@H](CCCc2ccc(F)cc2)[C@@H](c2ccc(CC3O[C@H](CO)[C@@H](O)[C@H](O)[C@H]3O)cc2)N1c1ccc(F)cc1` (stereo in doubt) [Compound 25, (4S,3R)-4-(4-{[(5S,2R,3R,4R,6R)-3,4,5-Trihydroxy-6-(hydroxymethyl)perhydro-2H-pyran-2-yl)methyl}phenyl)-1-(4-fluorophenyl)-3-[3-(4-fluorophenyl)propyl]azetidine-2-one], the melting point was 67 to 69 °C. Take `O=C1[C@H](CC[C@H](O)c2ccc(F)cc2)[C@@H](c2ccc(C[C@@H]3O[C@H](CO)[C@@H](O)[C@H](O)[C@H]3O)cc2)N1c1ccc(F)cc1` [Compound 22, (4S,3R)-3-[(3S)-3-(4-Fluorophenyl)-3-hydroxypropyl]-4-(4-{[(2S,5S,3R,4R,6R)-3,4,5-trihydroxy-6-(hydroxymethyl)perhydro-2H-pyran-2-yl]methyl}phenyl)-1-(4-fluorophenyl)azetidine-2-one]: the melting point is 115 to 117 °C.

The compound `O=C(CC[C@H]1C(=O)N(c2ccc(F)cc2)[C@@H]1c1ccc(C[C@@H]2O[C@H](CO)[C@@H](O)[C@H](O)[C@H]2O)cc1)c1ccc(F)cc1` [Compound 26, (4S,3R)-4-(4-{[(2S,5S,3R,4R,6R)-3,4,5-Trihydroxy-6-(hydroxymethyl)perhydro-2H-pyran-2-yl]methyl}phenyl)-1-(4-fluorophenyl)-3-[3-(4-fluorophenyl)-3-oxopropyl]azetidine-2-one] came in with a melting point of 78 to 80 °C. For `O=C(CC[C@H]1C(=O)N(c2ccccc2)[C@@H]1c1ccc(C[C@@H]2O[C@H](CO)[C@@H](O)[C@H](O)[C@H]2O)cc1)c1ccc(F)cc1` [Compound 27, (4S,3R)-4-(4-{[(2S,5S,3R,4R,6R)-3,4,5-Trihydroxy-6-(hydroxymethyl)perhydro-2H-pyran-2-yl]methyl}phenyl)-1-phenyl-3-[3-(4-fluorophenyl)-3-oxopropyl]azetidine-2-one], the melting point fell in the range of 104 to 106 °C.

For `O=C(O)c1ccc(N2C(=O)[C@H](CC[C@H](O)c3ccc(F)cc3)[C@H]2c2ccc(C[C@@H]3O[C@H](CO)[C@@H](O)[C@H](O)[C@H]3O)cc2)cc1` [Compound 29, 4-[(4S,3R)-3-[(3S)-3-(4-Fluorophenyl)-3-hydroxypropyl]-4-(4-{[(2S,5S,3R,4R,6R)-3,4,5-trihydroxy-6-(hydroxymethyl)perhydro-2H-pyran-2-yl]methyl}phenyl)-2-oxoazetidinyl]benzoic acid], the melting point is 148 to 150 °C. Regarding `O=C(O)c1ccc(N2C(=O)[C@H](CCC(=O)c3ccc(F)cc3)[C@H]2c2ccc(C[C@@H]3O[C@H](CO)[C@@H](O)[C@H](O)[C@H]3O)cc2)cc1` [Compound 30, 4-[(4S,3R)-4-(4-{[(2S,5S,3R,4R,6R)-3,4,5-Trihydroxy-6-(hydroxymethyl)perhydro-2H-pyran-2-yl]methyl}phenyl)-3-[3-(4-fluorophenyl)-3-oxopropyl]-2-oxoazetidinyl]benzoic acid], the melting point fell in the range of 102 to 104 °C.

The compound `O=C(O)c1ccc(N2C(=O)[C@H](CCCc3ccc(F)cc3)[C@H]2c2ccc(C[C@@H]3O[C@H](CO)[C@@H](O)[C@H](O)[C@H]3O)cc2)cc1` [Compound 31, 4-[(4S,3R)-4-(4-{[(2S,5S,3R,4R,6R)-3,4,5-Trihydroxy-6-(hydroxymethyl)perhydro-2H-pyran-2-yl]methyl}phenyl)-3-[3-(4-fluorophenyl)propyl]-2-oxoazetidinyl]benzoic acid] returned a melting point of 97 to 99 °C. Compound `O=C(CC[C@H]1C(=O)N(c2ccc(F)cc2)[C@@H]1c1ccc([C@@H]2O[C@H](CO)[C@@H](O)[C@H](O)[C@H]2O)cc1)c1ccc(F)cc1` [Compound 34] displayed a melting point of 83 to 85 °C. On to `O=C1[C@H](CC[C@H](O)c2ccc(F)cc2)[C@@H](c2ccc([C@@H]3O[C@H](CO)[C@@H](O)[C@H](O)[C@H]3O)cc2)N1c1ccc(F)cc1` [Compound 35], for which the melting point fell in the range of 81 to 83 °C. `Cc1ccc(N2C(=O)[C@H](CC[C@H](O)c3ccc(F)cc3)[C@H]2c2ccc([C@@H]3O[C@H](CO)[C@@H](O)[C@H](O)[C@H]3O)cc2)cc1` [Compound 36] yielded a melting point of 79 to 81 °C. Compound `O=C1[C@H](CC[C@H](O)c2ccccc2)[C@@H](c2ccc(C[C@@H]3O[C@H](CO)[C@@H](O)[C@H](O)[C@H]3O)cc2)N1c1ccccc1` [Compound 41, 3-((3S)-3-Hydroxy-3-phenylpropyl)(4S,3R)-4-(4-{[(2S,5S,3R,4R,6R)-3,4,5-trihydroxy-6-(hydroxymethyl)perhydro-2H-pyran-2-yl]methyl}phenyl)-1-phenylazetidine-2-one] yielded a melting point of 110 to 112 °C. As for `CCOC(=O)c1ccc(N2C(=O)[C@H](CC[C@H](O)c3ccc(F)cc3)[C@H]2c2ccc(C[C@@H]3O[C@H](CO)[C@@H](O)[C@H](O)[C@H]3O)cc2)cc1` [Compound 42, 4-[3-((3S)-3-(4-Fluorophenyl)-3-hydroxypropyl](4S,3R)-4-(4-{[(2S,5S,3R,4R,6R)-3,4,5-trihydroxy-6-(hydroxymethyl)perhydro-2H-pyran-2-yl]methyl}phenyl)-2-oxoazetidinyl]benzoic acid ethyl ester], the melting point lay within 56 to 58 °C.
